Test results taken from patent US4861785A (priority 1985, dated 1989).
Where a name gives a salt, the structure may show the parent alone.

System: KCN-induced lethality
Test: KCN Test in Rats (protection from KCN induced lethality)
Format: in vivo
Settings: Rattus norvegicus, sc; male Wistar rats, subcutaneous, one hour before KCN 5 mg/kg i.v.; survival after 2 minutes; read-out: ED50-values (protecting 50% of the tested animals against KCN-induced lethality)

Structure (SMILES)	ED50 [mg/kg]
C[C@@H]1CN(CCCCOc2ccccc2)CC[C@@H]1N(C)c1nc2ccccc2s1 (relative stereo) [Compound 75]	10
CN(c1nc2ccccc2o1)C1CCN(CC(O)C2COc3ccccc3O2)CC1 (single isomer, unassigned) [Compound 413, (A)-4-[(2-benzoxazolyl)methylamino]-α-(2,3-dihydro-1,4-benzodioxin-2-yl)-1-piperidineethanol]	5
CN(c1nc2ccccc2s1)C1CCN(CC(O)C2COc3ccccc3O2)CC1 (single isomer, unassigned) [Compound 415, (A)-4-[(2-benzothiazolyl)methylamino]-α-(2,3-dihydro-1,4-benzodioxin-2-yl)-1-piperidineethanol]	10
CN(c1nc2ccccc2s1)C1CCN(CCCCOc2cccc(Cl)c2)CC1.O=C(O)/C=C\C(=O)O [Compound 1, N-[1-[4-(3-chlorophenoxy)butyl]-4-piperidinyl]-N-methyl-2-benzothiazolamine (Z)-2-butenedioate (1:1)]	5
CN(c1nc2ccccc2s1)C1CCN(CCCOc2cccc(F)c2)CC1 [Compound 9]	2.5
CN(c1nc2ccccc2s1)C1CCN(CCCCOc2ccccc2)CC1 [Compound 10]	5
CN(c1nc2ccccc2s1)C1CCN(CCCCOc2ccc(F)cc2)CC1 [Compound 11]	1.25
CN(c1nc2ccccc2o1)C1CCN(CCCCOc2ccc(Cl)cc2)CC1 [Compound 15]	0.63
CN(c1nc2ccccc2s1)C1CCN(CCCOc2ccccc2F)CC1 [Compound 18]	5
COc1ccc(OCCCN2CCC(N(C)c3nc4ccccc4s3)CC2)cc1 [Compound 24]	5
COc1ccc(OCCCCN2CCC(N(C)c3nc4ccccc4s3)CC2)cc1 [Compound 31]	5
CN(c1nc2ccccc2s1)C1CCN(CCCCCOc2ccc(F)cc2)CC1 [Compound 32]	5
CN(c1nc2ccccc2s1)C1CCN(CCCCOc2ccc(Br)cc2)CC1 [Compound 42]	2.5
Cc1cccc(OCCCN2CCC(N(C)c3nc4ccccc4o3)CC2)c1 [Compound 48]	1.25
COc1ccccc1OCCCCCN1CCC(N(C)c2nc3ccccc3s2)CC1 [Compound 50]	2.5
CCCCN1CCC(N(C)c2nc3ccccc3o2)CC1 [Compound 103]	5
C(=Cc1ccccc1)CN1CCC(Nc2nc3ccccc3o2)CC1 [Compound 107]	2.5
CN(c1nc2ccccc2s1)C1CCN(CCCCCc2ccccc2)CC1 [Compound 108]	5
CN(c1nc2ccccc2s1)C1CCN(CCCCOc2ccc(F)cc2)C1 (stereo not shown) [Compound 118, N-[1-[4-(4-fluorophenoxy)butyl]-3-pyrrolidinyl]-N-methyl-2-benzothiazolamine dihydrochloride.monohydrate]	5
Cc1cccc(OCCCN2CCC(N(C)c3nc4ccccc4s3)C2)c1.O=C(O)C(=O)O (stereo not shown) [Compound 120, N-methyl-N-[1-[3-(3-methylphenoxy)propyl]-3-pyrrolidinyl]-2-benzothiazolamine ethanedioate(1:1)]	2.5
CN(c1nc2ccccc2s1)C1CCN(CCCOc2cccc(F)c2)C1.O=C(O)C(=O)O (stereo not shown) [Compound 121, N-[1-[3-(3-fluorophenoxy)propyl]-3-pyrrolidinyl]-N-methyl-2-benzothiazolamine ethanedioate(1:1)]	2.5
CCN(c1nc2ccccc2s1)C1CCN(CCCOc2ccc(C)cc2)CC1 [Compound 123, N-ethyl-N-[1-[3-(4-methylphenoxy)propyl]-4-piperidinyl]-2-benzothiazolamine]	5

Structure (SMILES)	ED50 [mg/kg]
CN(c1nc2ccccc2s1)C1CCN(CC=Cc2ccccc2)CC1 [Compound 133]	5
CN(c1nc2ccccc2s1)C1CCN(CCCOc2ccc(F)cc2)CC1 [Compound 146]	5
CN(c1nc2ccccc2s1)C1CCN(CCCOc2ccc3ccccc3c2)CC1 [Compound 148]	5
CN(c1nc2ccccc2s1)C1CCN(CCCOc2ccc([N+](=O)[O-])cc2)CC1 [Compound 151]	5
CN(c1nc2ccccc2s1)C1CCN(CCCCCOc2cccc(Cl)c2)CC1 [Compound 191]	2.5
CN(c1nc2ccccc2o1)C1CCN(CCCOc2cccc(F)c2)CC1 [Compound 195]	1.25
CN(c1nc2ccccc2o1)C1CCN(C2CCCCC2)CC1 [Compound 309]	5
CN(c1nc2ccccc2s1)C1CCN(CC(O)COc2ccc(F)cc2)CC1 (stereo not drawn) [Compound 320, 4-[(2-benzothiazolyl)methylamino]-α-[(4-fluorophenoxy)methyl]-1-piperidineethanol monohydrochloride]	1.8
CN(c1nc2ccccc2o1)C1CCN(CC(O)COc2ccccc2)CC1 (stereo not shown) [Compound 322]	5
CN(c1nc2ccccc2o1)C1CCN(CC(O)COc2ccc(F)cc2)CC1 (stereo not shown) [Compound 323]	1.25
CN(c1nc2ccccc2o1)C1CCN(CC(O)COc2ccc(Cl)cc2)CC1 (stereo not shown) [Compound 324]	2.5
CCN(c1nc2ccccc2s1)C1CCN(CC(O)COc2ccc(Cl)cc2)CC1 (stereo not shown) [Compound 357]	0.63
CN(c1nc2ccccc2s1)C1CCN(CC(O)COc2ccc(F)cc2)C1 (stereo not drawn) [Compound 405, 3-[(2-benzothiazolyl)methylamino]-α-[(4-fluorophenoxy)methyl]-1-pyrrolidineethanol 4-methylbenzenesulfonate(1:2)]	10
CN(c1nc2ccccc2s1)C1CCN(C[C@@H](O)COc2ccc(F)cc2)CC1 [Compound 410, (+)-(R)-4-[(2-benzothiazolyl)methylamino]-α-[(4-fluorophenoxy)methyl]-1-piperidineethanol dihydrochloride]	5
CN(c1nc2ccccc2s1)C1CCN(C[C@H](O)COc2ccc(F)cc2)CC1 [Compound 411, (-)-(S)-4-[(2-benzothiazolyl)methylamino]-α-[(4-fluorophenoxy)methyl]-1-piperidineethanol dihydrochloride]	5
CN(c1nc2ccccc2s1)C1CCN(CC(O)C2CCc3ccccc3O2)CC1 (stereo not drawn) [Compound 438, (A^-)-4-[(2-benzothiazolyl)methylamino]-α-(3,4-dihydro-2H-1-benzopyran-2-yl)-1-piperidineethanol]	10
CN(c1nc2ccccc2s1)C1CCN(CC(O)CSc2ccccc2)CC1 (stereo not drawn) [Compound 440, 4-[(2-benzothiazolyl)methylamino]-α-[(phenylthio)methyl]-1-piperidineethanol (Z)-2-butenedioate(1:1)]	10
CN(c1nc2ccccc2s1)C1CCN(CC(O)CSc2ccc(F)cc2)CC1 (stereo not drawn) [Compound 442, 4-[(2-benzothiazolyl)methylamino]-α-[[(4-fluorophenyl)thio]methyl]-1-piperdineethanol (Z)-2-butenedioate(1:1)]	2.5
CN(c1nc2ccccc2s1)C1CCN(CC(O)CSc2ccc(Cl)cc2)CC1 (stereo not drawn) [Compound 443, 4-[(2-benzothiazolyl)methylamino]-α-[[(4-chlorophenyl)thio]methyl]-1-piperidineethanol (Z)-2-butenedioate(1:1)]	10
CN(c1nc2ccccc2o1)C1CCN(CC(O)CSc2ccccc2)CC1 (stereo not drawn) [Compound 446, 4-[(2-benzoxazolyl)methylamino]-α-[(phenylthio)methyl]-1-piperidineethanol (E)-2-butenedioate(2:1)]	10
CN(c1nc2ccccc2o1)C1CCN(CCc2ccccn2)CC1 [Compound 452, N-methyl-N-[1-[2-(2-pyridinyl)ethyl]-4-piperidinyl]-2-benzoxazolamine]	5
